Paper PMC11645656, “MRGPRX4 mediates phospho-drug associated pruritus in a humanized mouse model” (Science translational medicine, 2024)
Several values for one entry are separate records, joined by “and”; a condition that tells them apart may be missing. Equal entries are not always repeated.

Assays:
[1] = molecular target: T1, MRGPRX4 (S83) (Homo sapiens, UniProt Q96LA9, L83S); test: EC50 determination, intracellular calcium mobilization in MRGPRX4 stably expressed HEK293 cells (FLIPR Calcium 5, Flexstation-3); format: cell-based; set-up: Fig. 1D dose-response, calcium mobilization response (individual replicate) / calcium mobilization response (Fig. 1D dose-response raw data): unit not given here; conditions: for calcium mobilization response (Fig. 1D dose-response raw data): individual replicate values
T1 construct: expressed in transfected cells
Summary of the method: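 EC50 came from a four-parameter logistic fit to averaged triplicate responses, each response being maximum post-stimulation signal less baseline. Intracellular calcium was monitored with Calcium 5 dye in HBSS with 20 mM HEPES, pH 7.4, after 1 h dye loading at 37 °C, using stably transfected HEK293 cells and parental controls.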

[2] = test system: NP2-X4+ mice (MRGPRX4 in Mrgpra3+ NP2 sensory neurons); test: Itch behavioral study (scratching bouts after subcutaneous nape injection) in NP2-X4+ mice; format: in vivo, mouse
[3] = molecular target: MRGPRX4 WT (S83) (Homo sapiens, UniProt Q96LA9, L83S); test: PRESTO-Tango β-arrestin recruitment assay, HTLA cells stably expressing WT (S83) MRGPRX4; format: cell-based; set-up: expressed in transfected cells; conditions: for PRESTO-Tango response (fig. S1), single replicate: HTLA::MRGPRX4; for fig. S7 response (raw signal), concentration-response: WT, single replicate
[4] = test system: NP2-WT mice; test: Itch behavioral study (scratching bouts after subcutaneous nape injection) in littermate control NP2-WT mice; format: in vivo; conditions: 30 min after injection of 50 μl 10 mM into the nape, each cell one mouse
[5] = IV, clinical trials; ref New Drug Application: 020450; cited from earlier work

T1 sequence (Q96LA9 whole entry L83S): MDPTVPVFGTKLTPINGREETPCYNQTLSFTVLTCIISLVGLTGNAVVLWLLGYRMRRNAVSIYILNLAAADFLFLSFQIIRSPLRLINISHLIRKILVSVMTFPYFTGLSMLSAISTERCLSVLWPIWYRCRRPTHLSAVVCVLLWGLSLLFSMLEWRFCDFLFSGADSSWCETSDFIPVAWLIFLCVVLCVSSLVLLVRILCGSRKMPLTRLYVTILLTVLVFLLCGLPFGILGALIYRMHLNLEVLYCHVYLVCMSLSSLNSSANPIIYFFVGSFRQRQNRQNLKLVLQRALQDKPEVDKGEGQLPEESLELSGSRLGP
MRGPRX4 WT (S83), sequence (Q96LA9 whole entry L83S): as above

For `O=C1NC(c2ccccc2)(c2ccccc2)C(=O)N1COP(=O)(O)O` [Fosphenytoin], the EC50 ([1]; MRGPRX4 stably expressed HEK293 cells, calcium mobilization, read-out: EC50) was 77 nM, the “calcium mobilization response (Fig. 1D dose-response raw data)” value (“calcium mobilization response” for short) ([1]; concentration 3.90625e-9 M) was 21.206 and 25.291 and 2.769 and 3.958 and -8.2623 and 8.875 and 8.837 and 9.145 and 8.934 and the “calcium mobilization response” value ([1]; concentration 7.8125e-9 M) was -14.542 and 13.805 and 7.794 and 12.8387 and 12.8087 and 12.5987 and 3.298 and 9.875 and 9.477. For the same compound, the “calcium mobilization response” value ([1]; concentration 1.5625e-8 M) was 19.866 and 22.527 and 5.041 and 1.449 and 6.253 and 14.7987 and -3.2365 and 13.5705 and -5.8765, the “calcium mobilization response” value ([1]; concentration 3.125e-8 M) was 57.235 and 30.337 and 81.497 and 17.5777 and 19.6667 and 31.6637 and -30.287 and 41.9265 and -1.7705 and the “calcium mobilization response” value ([1]; concentration 6.25e-8 M) was 190.544 and 229.236 and 134.524 and 58.9937 and 67.8137 and 76.3827 and 88.4165 and 111.221 and 55.6105. The “calcium mobilization response” value ([1]; concentration 1.25e-7 M) was 316.003 and 301.004 and 304.213 and 117.536 and 116.768 and 79.1877 and 194.175 and 173.792 and 144.932, the “calcium mobilization response” value ([1]; concentration 2.5e-7 M) was 345.7 and 324.779 and 337.838 and 121.175 and 136.568 and 118.794 and 200.38 and 226.084 and 171.163 and the “calcium mobilization response” value ([1]; concentration 5e-7 M) was 387.516 and 373.964 and 353.304 and 134.73 and 112.159 and 119.649 and 195.132 and 238.81 and 185.954. The “calcium mobilization response” value ([1]; concentration 1e-6 M) was 410.183 and 413.027 and 415.898 and 143.736 and 123.579 and 132.916 and 226.932 and 271.213 and 250.762, the “calcium mobilization response” value ([1]; concentration 2e-6 M) was 394.314 and 370.112 and 382.271 and 127.759 and 125.948 and 138.324 and 218.164 and 295.676 and 255.523 and the Hill coefficient ([1]; dose-response curve fitting, table S1) was 1.917. For the same compound, the “Scratching / itch behavior, NP2-X4+ mice vs WT littermates” value ([2]; 50 μl 10 mM nape injection, 30 min) was “significantly increased scratching behavior”, the “Scratching bouts of individual animals” value ([2]; NP2-X4+, 30 min after injection of 50 μl 10 mM into the nape, each cell one mouse) was 32 and 55 and 37 and 89 and 49 and 39 and 73 and 83 and 25 and 94 and the “PRESTO-Tango response (fig. S1), single replicate” value (from here on “PRESTO-Tango response (fig. S1)”) ([3]; concentration 1.95e-7 M) was 0.2272 and 0.1839 and 0.1708 and 0.08379 and 0.0626 and 0.06306. The “PRESTO-Tango response (fig. S1)” value ([3]; concentration 3.91e-7 M) was 0.258 and 0.2297 and 0.204 and 0.07839 and 0.196 and 0.08224, the “PRESTO-Tango response (fig. S1)” value ([3]; concentration 7.81e-7 M) was 0.5296 and 0.4272 and 0.4321 and 0.1295 and 0.1604 and 0.1155 and the “PRESTO-Tango response (fig. S1)” value ([3]; concentration 1.56e-6 M) was 1.193 and 1.025 and 0.8155 and 0.2489 and 0.1773 and 0.193. For the same compound, the “PRESTO-Tango response (fig. S1)” value ([3]; concentration 3.13e-6 M) was 2.598 and 2.433 and 2.514 and 0.4404 and 0.5024 and 0.4535, the “PRESTO-Tango response (fig. S1)” value ([3]; concentration 6.25e-6 M) was 5.285 and 4.4353 and 4.292 and 0.9622 and 0.8766 and 0.6627 and the “PRESTO-Tango response (fig. S1)” value ([3]; concentration 1.25e-5 M) was 7.96 and 6.958 and 5.919 and 1.839 and 1.437 and 1.511. The “PRESTO-Tango response (fig. S1)” value ([3]; concentration 2.5e-5 M) was 10.7681 and 8.616 and 8.444 and 2.5381 and 2.199 and 2, the “PRESTO-Tango response (fig. S1)” value ([3]; concentration 5e-5 M) was 10.7109 and 8.966 and 9.235 and 2.8872 and 2.833 and 2.449 and the “PRESTO-Tango response (fig. S1)” value ([3]; concentration 0.0001 M) was 9.427 and 8.942 and 7.727 and 3.267 and 2.882 and 2.338. The “PRESTO-Tango response (fig. S1)” value ([3]; concentration 0.0002 M) was 8.979 and 8.052 and 6.854 and 2.562 and 2.3992 and 2.255, the “fig. S7 response (raw signal), concentration-response” value (“fig. S7 response (raw signal)” below) ([3]; 1.95e-7 M) was 22724.6 and 18390.5 and 17083.6 and 8378.77 and 6259.78 and 6305.82 and 12291.8 and 11793.8 and 15486 and the “fig. S7 response (raw signal)” value ([3]; 3.91e-7 M) was 25803.9 and 22965.5 and 20401.3 and 7839.11 and 19602.9 and 8224.03 and 24524.9 and 14963.1 and 12930.4. For the same compound, the “fig. S7 response (raw signal)” value ([3]; 7.81e-7 M) was 52955.5 and 42723 and 43213.9 and 12950.5 and 16037.6 and 11551.5 and 30971.1 and 30307.2 and 28437.7, the “fig. S7 response (raw signal)” value ([3]; 1.56e-6 M) was 119282 and 102488 and 81549.3 and 24892.1 and 17734.6 and 19298.5 and 55751 and 73836.3 and 53034.5 and the “fig. S7 response (raw signal)” value ([3]; 3.13e-6 M) was 259763 and 243320 and 251368 and 44035.9 and 50243.2 and 45345.4 and 138332 and 159511 and 149195. The “fig. S7 response (raw signal)” value ([3]; 6.25e-6 M) was 528451 and 443530 and 429228 and 96221.6 and 87656.1 and 66266.7 and 291383 and 234158 and 300136, the “fig. S7 response (raw signal)” value ([3]; 1.25e-5 M) was 795954 and 695772 and 591944 and 183925 and 143683 and 151143 and 437126 and 336645 and 507439 and the “fig. S7 response (raw signal)” value ([3]; 2.5e-5 M) was 1076811 and 861577 and 844388 and 253810 and 219862 and 200044 and 648692 and 547623 and 531932. For the same compound, the “fig. S7 response (raw signal)” value ([3]; 5e-5 M) was 1071085 and 896572 and 923510 and 288720 and 283304 and 244853 and 667677 and 558954 and 627391, the “fig. S7 response (raw signal)” value ([3]; 0.0001 M) was 942731 and 894246 and 772701 and 326668 and 288202 and 233769 and 534832 and 581310 and 583017 and the “fig. S7 response (raw signal)” value ([3]; 0.0002 M) was 897926 and 805208 and 685441 and 256156 and 239920 and 225546 and 318639 and 44935. For the same compound, the “Scratching bouts of individual animals” value [4] was 33 and 0 and 2 and 9 and 5 and 14 and 6 and 20 and 4 and the “Patients who reported itch” value [5] was 48.9%.
